Results: ChEMBL document CHEMBL1201862, “PubChem BioAssay data set” (2004)
Where a name gives a salt, the structure may show the parent alone.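 Following 48 hours of exposure in 96-well plates, responses at five concentrations were used to interpolate endpoints linearly. At the GI50, growth is halved.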 The source made the active and inactive calls. Cut-off read from the data, not from the text of the source: active = GI50 up to about 1.1 µM and inactive = higher. Where a SMILES comes first, the peptide text is derived from it. [ ]: non-standard residue; d: D form. The star is where a group is joined. ξ: configuration not given here. ξD = NC(CC(=O)O)C(=O)O; Boc = CC(C)(C)OC(=O)*; Aib = CC(C)(N)C(=O)O; OBn = c1ccc(CO*)cc1

How the values were obtained:
Assay in all cases: NCI-60 cell line screen, 48 h
[1] = system: T47D
[2] = system: TK-10
[3] = system: PC-3
[4] = system: MDA-MB-435
[5] = system: NCI-H226
[6] = system: OVCAR-8
[7] = system: SK-MEL-2
[8] = system: 786-0
[9] = system: BT-549
[10] = system: IGROV-1
[11] = system: SW-620
[12] = system: Hs-578T
[13] = system: HCT-15
[14] = system: SF-268
[15] = system: HCT-116
[16] = system: Malme-3M
[17] = system: NCI-H460
[18] = system: RXF 393
[19] = system: SF-539
[20] = system: CAKI-1

Compound	GI50 [1]	GI50 [2]	GI50 [3]	GI50 [4]	GI50 [5]	GI50 [6]	GI50 [7]	GI50 [8]	GI50 [9]	GI50 [10]	GI50 [11]	GI50 [12]	GI50 [13] [µM]	GI50 [14]	GI50 [15]	GI50 [16]	GI50 [17]	GI50 [18]	GI50 [19]	GI50 [20]
CC(C)(C)OC(=O)NC(CC(=O)OCc1ccccc1)C(=O)NC(C)(C)C(N)=O (stereo not given) (Boc-[ξD](OBn)-[Aib]-NH2)	> 100 µM (inactive)	> 100 µM (inactive)	> 100 µM (inactive)	> 100 µM (inactive)	> 100 µM (inactive)	> 100 µM (inactive)	> 100 µM (inactive)	> 100 µM (inactive)	> 100 µM (inactive)	> 100 µM (inactive)	> 100 µM (inactive)	> 100 µM (inactive)	> 100	> 100 µM (inactive)	> 100 µM (inactive)	> 100 µM (inactive)	> 100 µM (inactive)	> 100 µM (inactive)	> 100 µM (inactive)	> 100 µM (inactive)
O=[N+]([O-])c1ccc2ncccc2c1CCc1c([N+](=O)[O-])ccc2ncccc12	> 100 µM (inactive)	> 100 µM (inactive)	> 100 µM (inactive)	> 100 µM (inactive)	> 100 µM (inactive)	> 100 µM (inactive)	> 100 µM (inactive)	> 100 µM (inactive)	> 100 µM (inactive)	> 100 µM (inactive)	> 100 µM (inactive)	> 100 µM (inactive)	> 100	> 100 µM (inactive)	> 100 µM (inactive)	> 100 µM (inactive)	> 100 µM (inactive)	> 100 µM (inactive)	> 100 µM (inactive)	> 100 µM (inactive)
COCOc1cc(OC)ccc1C/C(=N/O)C(=O)OC	> 100 µM (inactive)	> 100 µM (inactive)	> 100 µM (inactive)	> 100 µM (inactive)	> 100 µM (inactive)	> 100 µM (inactive)	> 100 µM (inactive)	> 100 µM (inactive)	> 100 µM (inactive)	> 100 µM (inactive)	> 100 µM (inactive)	> 100 µM (inactive)	> 100	> 100 µM (inactive)	> 100 µM (inactive)	> 100 µM (inactive)	> 100 µM (inactive)	> 100 µM (inactive)	> 100 µM (inactive)	> 100 µM (inactive)
C=CCN(CCNS(=O)(=O)c1ccc(C)cc1)S(=O)(=O)c1ccc(C)cc1	> 51.1 µM (inactive)	> 55.2 µM (inactive)	> 48 µM (inactive)	> 57.9 µM (inactive)	> 71.3 µM (inactive)	17.3 µM (inactive)	34 µM (inactive)	61.8 µM (inactive)	22.4 µM (inactive)	76.2 µM (inactive)	> 82.2 µM (inactive)	> 52.4 µM (inactive)	> 55.5	10.4 µM (inactive)	34.2 µM (inactive)	36.1 µM (inactive)	9.46 µM (inactive)	> 67.6 µM (inactive)	75.9 µM (inactive)	87.9 µM (inactive)
COC(=O)C(Cc1ccc(Oc2cc(CC(NC(=O)c3ccccc3)C(=O)OC)ccc2OC)cc1)NC(=O)c1ccccc1 (stereo not given)	6.04 µM (inactive)	7.53 µM (inactive)	22.7 µM (inactive)	18.4 µM (inactive)	27.5 µM (inactive)	10.7 µM (inactive)	14.5 µM (inactive)	7.83 µM (inactive)	26.7 µM (inactive)	6.3 µM (inactive)	39.3 µM (inactive)	23 µM (inactive)	28.7	19.7 µM (inactive)	30.3 µM (inactive)	15.2 µM (inactive)	22.8 µM (inactive)	14.7 µM (inactive)	30.1 µM (inactive)	54.8 µM (inactive)
O=C(NCCc1ccccn1)c1ccc2cc(C(=O)N3CC(CCl)c4ccc([N+](=O)[O-])cc43)[nH]c2c1 (stereo not given)	> 100 µM (inactive)	20.7 µM (inactive)	44.6 µM (inactive)	> 100 µM (inactive)	> 58.9 µM (inactive)	9.12 µM (inactive)	> 100 µM (inactive)	9.64 µM (inactive)	> 100 µM (inactive)	53.6 µM (inactive)	> 100 µM (inactive)	94.6 µM (inactive)	77.4	7.1 µM (inactive)	> 70.3 µM (inactive)	10.9 µM (inactive)	22.7 µM (inactive)	7.66 µM (inactive)	> 43.4 µM (inactive)	> 24.2 µM (inactive)
CCOC(=O)NC(Nc1cccc(C(F)(F)F)c1)(C(F)(F)F)C(F)(F)F	> 100 µM (inactive)	> 100 µM (inactive)	> 100 µM (inactive)	> 100 µM (inactive)	> 100 µM (inactive)	> 100 µM (inactive)	> 100 µM (inactive)	> 100 µM (inactive)	> 100 µM (inactive)	> 100 µM (inactive)	> 100 µM (inactive)	> 100 µM (inactive)	> 100	> 100 µM (inactive)	> 100 µM (inactive)	> 100 µM (inactive)	> 100 µM (inactive)	> 100 µM (inactive)	> 100 µM (inactive)	> 100 µM (inactive)
O=C1c2cccc3cccc(c23)C(=O)N1CCCNCCCCNCCCNCCCN1C(=O)c2cccc3cccc(c23)C1=O [BISNAPHTHALIMIDOPROPYL SPERMIDINE TRIHYDROBROMIDE]	1.12 µM (inactive)	2.55 µM (inactive)	0.535 µM (active)	0.74 µM (active)	0.505 µM (active)	0.748 µM (active)	1.22 µM (inactive)	0.175 µM (active)	1.64 µM (inactive)	0.472 µM (active)	0.555 µM (active)	0.0378 µM (active)	11.7	0.282 µM (active)	0.399 µM (active)	0.513 µM (active)	0.323 µM (active)	0.473 µM (active)	0.585 µM (active)	4.01 µM (inactive)
O=C(CCC(=O)c1ccsc1)c1ccsc1	> 100 µM (inactive)	> 100 µM (inactive)	> 100 µM (inactive)	> 100 µM (inactive)	> 100 µM (inactive)	> 100 µM (inactive)	> 100 µM (inactive)	> 100 µM (inactive)	> 100 µM (inactive)	> 100 µM (inactive)	> 100 µM (inactive)	> 100 µM (inactive)	> 100	> 100 µM (inactive)	> 100 µM (inactive)	> 100 µM (inactive)	> 100 µM (inactive)	> 100 µM (inactive)	> 100 µM (inactive)	> 100 µM (inactive)
Cc1ccc(C(=O)/C=C(O)/C(O)=C/C(=O)c2ccc(C)cc2C)c(C)c1	2.05 µM (inactive)	1.8 µM (inactive)	2.31 µM (inactive)	2.01 µM (inactive)	2.04 µM (inactive)	2.86 µM (inactive)	1.87 µM (inactive)	2.03 µM (inactive)	1.64 µM (inactive)	1.98 µM (inactive)	2.37 µM (inactive)	2.21 µM (inactive)	2	1.91 µM (inactive)	2.32 µM (inactive)	1.86 µM (inactive)	1.71 µM (inactive)	2.02 µM (inactive)	1.85 µM (inactive)	2.07 µM (inactive)
CC(=O)N1c2ccccc2C(C)C1c1[nH]c2ccccc2c1C (stereo not given)	18.8 µM (inactive)	22.8 µM (inactive)	31.3 µM (inactive)	18.2 µM (inactive)	25.3 µM (inactive)	20.8 µM (inactive)	17.7 µM (inactive)	19.9 µM (inactive)	22.5 µM (inactive)	24.1 µM (inactive)	27.5 µM (inactive)	16.6 µM (inactive)	27.2	23.4 µM (inactive)	16.5 µM (inactive)	39.7 µM (inactive)	19.3 µM (inactive)	13 µM (inactive)	11 µM (inactive)	22.8 µM (inactive)
COc1ccc(C(=O)Cn2c(C(C)=O)nc3ccccc32)cc1	5.28 µM (inactive)	> 76.6 µM (inactive)	6.98 µM (inactive)	13.5 µM (inactive)	> 74 µM (inactive)	3.8 µM (inactive)	12.7 µM (inactive)	6.59 µM (inactive)	8.45 µM (inactive)	6.73 µM (inactive)	5.56 µM (inactive)	23.2 µM (inactive)	6.35	> 64.9 µM (inactive)	6.15 µM (inactive)	41 µM (inactive)	4.21 µM (inactive)	> 56.4 µM (inactive)	> 53.5 µM (inactive)	7.21 µM (inactive)
Fc1ccc(C(=C2CCN(CCc3ccc4[nH]c(=S)[nH]c4c3)CC2)c2ccc(F)cc2)cc1	1.92 µM (inactive)	2.17 µM (inactive)	2.73 µM (inactive)	1.79 µM (inactive)	22 µM (inactive)	2.74 µM (inactive)	2.7 µM (inactive)	1.86 µM (inactive)	5.98 µM (inactive)	3.99 µM (inactive)	2.47 µM (inactive)	10.9 µM (inactive)	3.15	6.65 µM (inactive)	1.79 µM (inactive)	1.47 µM (inactive)	2.83 µM (inactive)	1.85 µM (inactive)	2.79 µM (inactive)	10.8 µM (inactive)
O=[N+]([O-])c1cc(-c2nc(-c3ccccc3)c(-c3ccccc3)[nH]2)c(O)c([N+](=O)[O-])c1	20.3 µM (inactive)	28.5 µM (inactive)	20.3 µM (inactive)	32.6 µM (inactive)	20.1 µM (inactive)	34 µM (inactive)	19.9 µM (inactive)	21.6 µM (inactive)	20 µM (inactive)	32.7 µM (inactive)	27.5 µM (inactive)	27.4 µM (inactive)	15.8	30.1 µM (inactive)	17.7 µM (inactive)	21.1 µM (inactive)	21.5 µM (inactive)	17.4 µM (inactive)	19.5 µM (inactive)	27.4 µM (inactive)
